Molecular target: human GLP1R (Homo sapiens (Human), UniProt P43220)
Experiment: In vitro cAMP signal activation in human GLP1R stably-expressing cell line (hGLP1R-HEK293)
Format: cell-based
Settings: cAMP concentration in hGLP1R-HEK293; 100% = 1 nM human GLP-1 (7-37)

Sequence of human GLP1R (P43220 24-463): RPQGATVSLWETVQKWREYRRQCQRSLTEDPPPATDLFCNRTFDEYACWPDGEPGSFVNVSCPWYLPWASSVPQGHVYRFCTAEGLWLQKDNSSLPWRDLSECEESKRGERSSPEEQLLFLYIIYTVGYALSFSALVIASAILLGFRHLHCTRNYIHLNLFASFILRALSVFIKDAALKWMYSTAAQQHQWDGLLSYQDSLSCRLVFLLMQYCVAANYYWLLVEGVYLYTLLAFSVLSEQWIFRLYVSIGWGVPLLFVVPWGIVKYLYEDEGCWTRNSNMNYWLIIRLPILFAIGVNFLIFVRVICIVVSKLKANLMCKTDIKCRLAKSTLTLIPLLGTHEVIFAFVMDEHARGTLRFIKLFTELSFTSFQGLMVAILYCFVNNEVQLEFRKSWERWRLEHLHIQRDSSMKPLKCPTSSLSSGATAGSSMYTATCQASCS

Row | SMILES | EC50 [nM]
1 | Cc1cc(-n2nc3c(c2-n2ccn(-c4ccc5c(cnn5C)c4)c2=O)[C@H](C)N(C(=O)c2cc4cc([C@H]5CCOC(C)(C)C5)ccc4n2[C@@]2(c4noc(=O)[nH]4)C[C@@H]2C)CC3)cc(C)c1F [compound 66, 3-[(1S,2S)-1-[5-[(4S)-2,2-dimethyloxan-4-yl]-2-[(4S)-2-(4-fluoro-3,5-dimethylphenyl)-4-methyl-3-[3-(1-methylindazol-5-yl)-2-oxoimidazol-1-yl]-6,7-dihydro-4H-pyrazolo[4,3-c]pyridine-5-carbonyl]indol-1-yl]-2-methylcyclopropyl]-4H-1,2,4-oxadiazol-5-one] | 0.81
2 | CCS(=O)(=O)c1ccc(-n2ccn(-c3c4c(nn3-c3cc(C)c(F)c(C)c3)CCN(C(=O)c3cc5cc(C6CCOCC6)ccc5n3[C@@]3(c5noc(=O)[nH]5)CC3C)[C@H]4C)c2=O)cc1 (stereo in doubt) [Example 21, 3-[(1S,2S)-1-[2-[(4S)-3-[3-(4-ethylsulfonylphenyl)-2-oxoimidazol-1-yl]-2-(4-fluoro-3,5-dimethylphenyl)-4-methyl-6,7-dihydro-4H-pyrazolo[4,3-c]pyridine-5-carbonyl]-5-(oxan-4-yl)indol-1-yl]-2-methylcyclopropyl]-4H-1,2,4-oxadiazol-5-one] | 1.6
3 | Cc1cc(-n2nc3c(c2-n2ccn(-c4ccc5c(cnn5C)c4F)c2=O)[C@H](C)N(C(=O)c2cc4cc(C5CCOCC5)ccc4n2[C@@]2(c4noc(=O)[nH]4)C[C@@H]2C)CC3)cc(C)c1F [Example 23, 3-[(1S,2S)-1-[2-[(4S)-2-(4-fluoro-3,5-dimethylphenyl)-3-[3-(4-fluoro-1-methylindazol-5-yl)-2-oxoimidazol-1-yl]-4-methyl-6,7-dihydro-4H-pyrazolo[4,3-c]pyridine-5-carbonyl]-5-(oxan-4-yl)indol-1-yl]-2-methylcyclopropyl]-4H-1,2,4-oxadiazol-5-one] | 1.8
4 | COc1nccc(-c2ccc3c(c2)cc(C(=O)N2CCc4nn(-c5cc(C)c(F)c(C)c5)c(-n5ccn(-c6ccc7c(cnn7CC(C)(C)O)c6)c5=O)c4C2)n3[C@@]2(c3noc(=O)[nH]3)C[C@@H]2C)c1C [Example 6, 3-[(1S,2S)-1-[2-[2-(4-fluoro-3,5-dimethylphenyl)-3-[3-[1-(2-hydroxy-2-methylpropyl)indazol-5-yl]-2-oxoimidazol-1-yl]-6,7-dihydro-4H-pyrazolo[4,3-c]pyridine-5-carbonyl]-5-(2-methoxy-3-methylpyridin-4-yl)indol-1-yl]-2-methylcyclopropyl]-4H-1,2,4-oxadiazol-5-one] | 2.9
5 | CC[C@H]1C[C@]1(c1noc(=O)[nH]1)n1c(C(=O)N2CCc3nn(-c4cc(C)c(F)c(C)c4)c(-n4ccn(-c5ccc6c(cnn6C)c5)c4=O)c3C2)cc2cc(C3CCOCC3)ccc21 [compound 78, 3-[(1S,2S)-2-Ethyl-1-[2-[2-(4-fluoro-3,5-dimethylphenyl)-3-[3-(1-methylindazol-5-yl)-2-oxoimidazol-1-yl]-6,7-dihydro-4H-pyrazolo[4,3-c]pyridine-5-carbonyl]-5-(oxan-4-yl)indol-1-yl]cyclopropyl]-4H-1,2,4-oxadiazol-5-one] | 3.6
6 | COCCn1ncc2cc(-n3ccn(-c4c5c(nn4-c4cc(C)c(F)c(C)c4)CCN(C(=O)c4cc6cc([C@H]7CCO[C@@H](C)C7)ccc6n4[C@@]4(c6noc(=O)[nH]6)C[C@@H]4C)[C@H]5C)c3=O)ccc21 [compound 62, 3-[(1S,2S)-1-[2-[(4S)-2-(4-fluoro-3,5-dimethylphenyl)-3-[3-[1-(2-methoxyethyl)indazol-5-yl]-2-oxoimidazol-1-yl]-4-methyl-6,7-dihydro-4H-pyrazolo[4,3-c]pyridine-5-carbonyl]-5-[(2S,4S)-2-methyloxan-4-yl]indol-1-yl]-2-methylcyclopropyl]-4H-1,2,4-oxadiazol-5-one] | 1.1
7 | COCCn1ncc2cc(-n3ccn(-c4c5c(nn4-c4cc(C)c(F)c(C)c4)CCN(C(=O)c4cc6cc(-c7ccnc(OC)c7C)ccc6n4[C@@]4(c6noc(=O)[nH]6)C[C@@H]4C)[C@H]5C)c3=O)ccc21 [Example 11, 3-[(1S,2S)-1-[2-[(4S)-2-(4-fluoro-3,5-dimethylphenyl)-3-[3-[1-(2-methoxyethyl)indazol-5-yl]-2-oxoimidazol-1-yl]-4-methyl-6,7-dihydro-4H-pyrazolo[4,3-c]pyridine-5-carbonyl]-5-(2-methoxy-3-methylpyridin-4-yl)indol-1-yl]-2-methylcyclopropyl]-4H-1,2,4-oxadiazol-5-one] | 1.1
8 | Cc1cc(-n2nc3c(c2-n2ccn(-c4ccc5c(cnn5[C@@H]5CCOC5)c4)c2=O)CN(C(=O)c2cc4cc(C5CCOCC5)ccc4n2[C@@]2(c4noc(=O)[nH]4)C[C@@H]2C)CC3)cc(C)c1F [Example 8, 3-[(1S,2S)-1-[2-[2-(4-fluoro-3,5-dimethylphenyl)-3-[2-oxo-3-[1-[(3R)-oxolan-3-yl]indazol-5-yl]imidazol-1-yl]-6,7-dihydro-4H-pyrazolo[4,3-c]pyridine-5-carbonyl]-5-(oxan-4-yl)indol-1-yl]-2-methylcyclopropyl]-4H-1,2,4-oxadiazol-5-one] | 2.5
9 | Cc1cc(-n2nc3c(c2-n2ccn(-c4ccc5c(cnn5C)c4)c2=O)[C@H](C)N(C(=O)c2cc4cc([C@H]5CCO[C@@H](C)C5)ccc4n2[C@@]2(c4noc(=O)[nH]4)C[C@@H]2C)CC3)cc(C)c1F [compound 61, 3-[(1S,2S)-1-[2-[(4S)-2-(4-fluoro-3,5-dimethylphenyl)-4-methyl-3-[3-(1-methylindazol-5-yl)-2-oxoimidazol-1-yl]-6,7-dihydro-4H-pyrazolo[4,3-c]pyridine-5-carbonyl]-5-[(2S,4S)-2-methyloxan-4 yl]indol-1-yl]-2-methylcyclopropyl]-4H-1,2,4-oxadiazol-5-one] | 1.6
10 | CCc1nccc(-c2ccc3c(c2)cc(C(=O)N2CCc4nn(-c5cc(C)c(F)c(C)c5)c(-n5ccn(-c6ccc7c(cnn7C)c6)c5=O)c4[C@@H]2C)n3[C@@]2(c3noc(=O)[nH]3)C[C@@H]2C)c1C [compound 73, 3-[(1S,2S)-1-[5-(2-ethyl-3-methylpyridin-4-yl)-2-[(4S)-2-(4-fluoro-3,5-dimethylphenyl)-4-methyl-3-[3-(1-methylindazol-5-yl)-2-oxoimidazol-1-yl]-6,7-dihydro-4H-pyrazolo[4,3-c]pyridine-5-carbonyl]indol-1-yl]-2-methylcyclopropyl]-4H-1,2,4-oxadiazol-5-one] | 2.5
11 | COCCn1ncc2c(F)c(-n3ccn(-c4c5c(nn4-c4cc(C)c(Cl)c(C)c4)CCN(C(=O)c4cc6cc([C@H]7CCOC(C)(C)C7)ccc6n4[C@@]4(c6noc(=O)[nH]6)C[C@@H]4C)[C@H]5C)c3=O)ccc21 [Example 43, 3-[(1S,2S)-1-[2-[(4S)-2-(4-chloro-3,5-dimethylphenyl)-3-[3-[4-fluoro-1-(2-methoxyethyl)indazol-5-yl]-2-oxoimidazol-1-yl]-4-methyl-6,7-dihydro-4H-pyrazolo[4,3-c]pyridine-5-carbonyl]-5-[(4S)-2,2-dimethyloxan-4-yl]indol-1-yl]-2-methylcyclopropyl]-4H-1,2,4-oxadiazol-5-one] | 1.5
12 | Cc1cc(-n2nc3c(c2-n2ccn(-c4ccc5c(c4)CCOC5(C)C)c2=O)[C@H](C)N(C(=O)c2cc4cc(C5CCOCC5)ccc4n2[C@@]2(c4noc(=O)[nH]4)C[C@@H]2C)CC3)cc(C)c1F [Example 24, 3-[(1S,2S)-1-[2-[(4S)-3-[3-(1,1-dimethyl-3,4-dihydroisochromen-6-yl)-2-oxoimidazol-1-yl]-2-(4-fluoro-3,5-dimethylphenyl)-4-methyl-6,7-dihydro-4H-pyrazolo[4,3-c]pyridine-5-carbonyl]-5-(oxan-4-yl)indol-1-yl]-2-methylcyclopropyl]-4H-1,2,4-oxadiazol-5-one] | 2.5
13 | Cc1cc(-n2nc3c(c2-n2ccn(-c4ccc5c(cnn5C)c4)c2=O)CN(C(=O)c2cc4cc(C5CCOCC5)ccc4n2[C@@]2(c4noc(=O)[nH]4)C[C@@H]2CO)CC3)cc(C)c1F [compound 79, 3-[(1S,2S)-1-[2-[2-(4-fluoro-3,5-dimethylphenyl)-3-[3-(1-methylindazol-5-yl)-2-oxoimidazol-1-yl]-6,7-dihydro-4H-pyrazolo[4,3-c]pyridine-5-carbonyl]-5-(oxan-4-yl)indol-1-yl]-2-(hydroxymethyl)cyclopropyl]-4H-1,2,4-oxadiazol-5-one] | 2.4
14 | COCCn1c(=O)n(C)c2cc(-n3ccn(-c4c5c(nn4-c4cc(C)c(F)c(C)c4)CCN(C(=O)c4cc6cc(C7CCOC(C)(C)C7)ccc6n4[C@@]4(c6noc(=O)[nH]6)C[C@@H]4C)[C@H]5C)c3=O)ccc21 (stereo in doubt) [Example 33, 3-[(1S,2S)-1-[5-[(4S)-2,2-dimethyloxan-4-yl]-2-[(4S)-2-(4-fluoro-3,5-dimethylphenyl)-3-[3-[1-(2-methoxyethyl)-3-methyl-2-oxobenzoimidazol-5-yl]-2-oxoimidazol-1-yl]-4-methyl-6,7-dihydro-4H-pyrazolo[4,3-c]pyridine-5-carbonyl]indol-1-yl]-2-methylcyclopropyl]-4H-1,2,4-oxadiazol-5-one] | 1.6
15 | COCCn1ncc2c(F)c(-n3ccn(-c4c5c(nn4-c4cc(C)c(Cl)c(C)c4)CCN(C(=O)c4cc6cc(C7CCOCC7)ccc6n4[C@@]4(c6noc(=O)[nH]6)C[C@@H]4C)[C@H]5C)c3=O)ccc21 [Example 45, 3-[(1S,2S)-1-[2-[(4S)-2-(4-chloro-3,5-dimethylphenyl)-3-[3-[4-fluoro-1-(2-methoxyethyl)indazol-5-yl]-2-oxoimidazol-1-yl]-4-methyl-6,7-dihydro-4H-pyrazolo[4,3-c]pyridine-5-carbonyl]-5-(oxan-4-yl)indol-1-yl]-2-methylcyclopropyl]-4H-1,2,4-oxadiazol-5-one] | 1.6
16 | Cc1cc(-n2nc3c(c2-n2ccn(-c4cc5cnn(C)c5cc4F)c2=O)[C@H](C)N(C(=O)c2cc4cc([C@H]5CCOC(C)(C)C5)ccc4n2[C@@]2(c4noc(=O)[nH]4)C[C@@H]2C)CC3)cc(C)c1F [compound 70] | 1.5
17 | CC[C@H]1CN(c2ccc3c(c2)cc(C(=O)N2CCc4nn(-c5cc(C)c(F)c(C)c5)c(-n5ccn(-c6ccc7c(cnn7C)c6)c5=O)c4C2)n3[C@@]2(c3noc(=O)[nH]3)C[C@@H]2C)CCO1 [compound 53] | 2.9

Reference: patent US10858356B2, “Pyrazolopyridine derivative having GLP-1 receptor agonist effect” (Chugai Seiyaku Kabushiki Kaisha, priority 2016, dated 2020)
